Measurements published in publication PMC12332667, “Role of Structural Modifications in Peptidomimetic Compounds as Potential Antimicrobial Agents against Staphylococcus aureus and Streptococcus pyogenes: Balancing Bioavailability, Safety, and Antimicrobial Activity” (ACS Omega, 2025).
Converted amounts (≈) assume the structure as drawn. “And” between values parts separate entries of the source, which are not always exact repeats. Equal values may be shown once. Residues, ends and D or L forms follow the SMILES beside them.

What was measured:
S. aureus ATCC 43300 = assay: MIC/MBC broth microdilution, S. aureus; assay type: cell-based, Staphylococcus aureus; conditions: S. aureus
[1] = tested on: K. pneumoniae ATCC 700603; assay: MIC/MBC broth microdilution, K. pneumoniae; assay type: cell-based
Summary of the method: (§1)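 BHI broth microdilution (NCCLS); ~10^5 CFU/mL; 37 °C, 18 h. MIC = lowest conc., no visible growth (≥90% vs untreated). MBC = ≤3 colonies, ≥99.9% kill. Water/DMSO/EtOH solvent controls; technical triplicate ×3 biological repeats.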

[2] = tested on: immortalized human HaCaT keratinocytes; assay: XTT cell proliferation assay, keratinocytes; assay type: cell-based; conditions: for effect on proliferation, in words: 48 and 72 h, 0.01–150 μg/mL
Summary of the method: (§2)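 Proliferation was read as XTT absorbance at 490 nm after 4 h of reagent incubation, following 48 or 72 h of peptide exposure in serum-free HG-DMEM (37 °C, 5% CO2). The 72 h arm included a half-medium change with second peptide dose at 48 h. Significance by Mann–Whitney U, p ≤ 0.05.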

[3] = tested on: human dermal fibroblast cell line (46BR.1N); assay: XTT cell proliferation assay, fibroblasts; assay type: cell-based; conditions: for effect on proliferation, in words: 48 and 72 h, 0.01–150 μg/mL
Summary of the method: as §2

S. intemrdius c.i. = assay: MIC/MBC broth microdilution, S. intermedius; assay type: cell-based, Staphylococcus intermedius
Summary of the method: as §1

[4] = Hydrophobicity by reverse-phase chromatography; assay type: physicochemical; conditions: acetonitrile content in the mobile phase at the retention time
Excerpt: Reverse-phase chromatography was employed to assess the hydrophobicity characteristics of the peptidomimetics. Hydrophobicity was quantified by determining the acetonitrile content in the mobile phase at the retention time of a peptidyl derivative (Table S2). The least hydrophobic compound (40% acetonitrile) was A-198, which aligns with the calculations of hydrophobicity by SwissADME and pkCSM (Table ). Next in the hydrophobicity sequence were A-197, A-220, A-219, A-174, and A-221, eluting with 42.5-43.9% of acetonitrile. Then there were followed by […], and A-179, with the acetonitrile percentage of 44.8-49.8. The compounds A-176, A-20, A-152, A-134, and A-210 needed over 50% of acetonitrile to be eluted from the column.

[5] = up to 150 μg/mL, A-193 and A-179 after 48 h
[6] = A-196 0.01–10 μg/mL, A-219 above 0.1 μg/mL, A-213 lower concentrations

Compound	MBC (S. aureus ATCC 43300; H2O)	MIC (S. aureus ATCC 43300; H2O)	MBC (S. aureus ATCC 43300; water additive DMSO)	MIC (S. aureus ATCC 43300; water additive DMSO)	MBC (S. aureus ATCC 43300; water additive EtOH)	MIC (S. aureus ATCC 43300; water additive EtOH)	MIC ([1]; H2O)	MIC ([1]; water additive DMSO)	MIC ([1]; water additive EtOH)	effect on proliferation, in words ([2]; XTT)	effect on proliferation, in words ([3]; XTT)	MBC (S. intemrdius c.i.; H2O)	MIC (S. intemrdius c.i.; H2O)	MIC (S. intemrdius c.i.; water additive DMSO)	MBC (S. intemrdius c.i.; water additive EtOH)	MIC (S. intemrdius c.i.; water additive EtOH)	% AcCN (acetonitrile required for elution from the column) [4]	also measured
CC(C)[C@@H](CNC(=O)C(=Cc1ccccc1)c1ccccc1)NC(=O)[C@H](CCCNC(=N)N)NC(=O)[C@H](CCCCNC(=N)N)NC(=O)OCc1ccccc1 [Compound A-192]	4 µg/mL (≈ 5.2 µM)	4 µg/mL (≈ 5.2 µM)	16 µg/mL (≈ 20.8 µM)	16 µg/mL (≈ 20.8 µM)	16 µg/mL (≈ 20.8 µM)	16 µg/mL (≈ 20.8 µM)	> 512 µg/mL	> 512 µg/mL	> 512 µg/mL	negative impact	negative impact	16 µg/mL (≈ 20.8 µM)	8 µg/mL (≈ 10.4 µM)	8 µg/mL (≈ 10.4 µM)	16 µg/mL (≈ 20.8 µM)	8 µg/mL (≈ 10.4 µM)	44.8–49.8% and 48.7%	proliferation relative to control at 100 and 150 μg/mL ([2]; XTT): 25%; proliferation relative to control at 50 μg/mL ([2]; XTT, 50 μg/mL): 50%; proliferation relative to control at 100 and 150 μg/mL ([3]; XTT): 25%; proliferation relative to control at 50 μg/mL ([3]; XTT, 50 μg/mL): 50%; MBC (S. intemrdius c.i.; water additive DMSO): 16 µg/mL (≈ 20.8 µM)
CC(C)[C@@H](CNC(=O)C(=Cc1ccccc1)c1ccccc1)NC(=O)[C@H](Cc1c[nH]cn1)NC(=O)[C@H](CCCCNC(=N)N)NC(=O)OCc1ccccc1 [Compound A-193]	32 µg/mL (≈ 42.7 µM)	32 µg/mL (≈ 42.7 µM)	32 µg/mL (≈ 42.7 µM)	32 µg/mL (≈ 42.7 µM)	32 µg/mL (≈ 42.7 µM)	32 µg/mL (≈ 42.7 µM)	> 512 µg/mL	> 512 µg/mL	> 512 µg/mL			32 µg/mL (≈ 42.7 µM)	16 µg/mL (≈ 21.3 µM)	32 µg/mL (≈ 42.7 µM)	32 µg/mL (≈ 42.7 µM)	16 µg/mL (≈ 21.3 µM)	49.0% and 44.8–49.8%	antiproliferative effect (decrease vs control) [2, 5]: over 50%; antiproliferative effect (decrease vs control) [3, 5]: over 50%
CC(C)[C@H](NC(=O)[C@H](Cc1c[nH]cn1)NC(=O)[C@H](CCCNC(=N)N)NC(=O)OCc1ccccc1)C(=O)NCCc1ccccc1 [Compound A-219] (HELM PEPTIDE1{[O=C(OCc1ccccc1)[*:2]].R.H.V.[c1ccc(CCN[*:1])cc1]}$$$$V2.0)		> 512 µg/mL		> 512 µg/mL		> 512 µg/mL	> 512 µg/mL	> 512 µg/mL	> 512 µg/mL	best pro-proliferative effect	best pro-proliferative effect						42.6%	pro-proliferative effect above control [2, 6]: around 20%; pro-proliferative effect above control [3, 6]: around 20%
CC(C)[C@H](NC(=O)[C@H](Cc1c[nH]cn1)NC(=O)[C@H](CCCCN)NC(=O)OCc1ccccc1)C(=O)NCCc1ccccc1 [Compound A-220] (HELM PEPTIDE1{[O=C(OCc1ccccc1)[*:2]].K.H.V.[c1ccc(CCN[*:1])cc1]}$$$$V2.0)	512 µg/mL (≈ 826 µM)	512 µg/mL (≈ 826 µM)	512 µg/mL (≈ 826 µM)	512 µg/mL (≈ 826 µM)	512 µg/mL (≈ 826 µM)	512 µg/mL (≈ 826 µM)	> 512 µg/mL	> 512 µg/mL	> 512 µg/mL	did not exert any negative impact	did not exert any negative impact						42.4%	
CC(C)[C@H](NC(=O)[C@H](CCCNC(=N)N)NC(=O)[C@H](CCCNC(=N)N)NC(=O)OCc1ccccc1)C(=O)NCCc1ccccc1 [Compound A-221] (HELM PEPTIDE1{[O=C(OCc1ccccc1)[*:2]].R.R.V.[c1ccc(CCN[*:1])cc1]}$$$$V2.0)	512 µg/mL (≈ 768 µM)	512 µg/mL (≈ 768 µM)		> 512 µg/mL	512 µg/mL (≈ 768 µM)	256 µg/mL (≈ 384 µM)	> 512 µg/mL	> 512 µg/mL	> 512 µg/mL	pro-proliferating effect at lower concentrations followed by an antiproliferative effect at higher concentrations	pro-proliferating effect at lower concentrations followed by an antiproliferative effect at higher concentrations						43.9%	
